Assays:
Type in all cases: in vivo, Heraclides andraemon
H. andraemon [1] = test: Egg laying of Piper amalago var. amalago plant bred H. andraemon given a choice of plants on which to lay (Example 8); details: eggs laid on citrus plant sprayed with the substance, Piper amalago var. amalago-reared butterflies, choice of 4 plants
From the text: H. andraemon larvae were reared on Piper amalago var. amalago plant. When they pupated and were ready to lay eggs, the butterflies were given the choice of plants on which to lay eggs: unsprayed lime plants, unsprayed Piper amalago var. amalago plants, citrus plant sprayed with Piper amalago var. amalago plant oil, and citrus plant sprayed with d-limonene. The egg laying was permitted to continue until the butterflies ceased laying eggs.

H. andraemon [2] = test: Egg laying of lime (citrus) plant bred H. andraemon given a choice of plants on which to lay (Example 7); details: eggs laid on Piper amalago var. amalago plants sprayed with the substance, lime plant-reared butterflies, choice of 4 plants
Description: The aerosol mixture for application to citrus plant and Piper amalago var. amalago plant materials was prepared by combining lime plant oil, Piper amalago var. amalago plant oil, d-limonene, or a combination thereof, with an alkane hydrocarbon mixture consisting of 28% butane and 72% propane. The aerosol was filled to a concentration of, e.g., 0.25% by weight of Piper amalago var. amalago plant oil in the hydrocarbon mixture or, e.g., 0.45% by weight of lime plant oil in the hydrocarbon mixture.
H. andraemon larvae were reared on lime plant. When they pupated and were ready to lay eggs, they were given the choice of plants on which to lay eggs: unsprayed lime plants, unsprayed Piper amalago var. amalago plants, Piper amalago var. amalago plants sprayed with lime plant oil, and Piper amalago var. amalago plants sprayed with d-limonene. Egg laying was permitted to continue until the butterflies ceased laying eggs. Nearly 100% of the eggs laid hatched into larvae.
Table 5 summarizes the results of an experiment in which the faithfulness of egg laying on the species of plant on which the butterflies were reared was confirmed. In this experiment, both lime plant oil and d-limonene were sprayed onto Piper amalago var. amalago plant to determine whether the butterflies discriminated between the two.

H. andraemon [3] = test: H. andraemon egg laying on lime plant seedling and P. aduncum, choice of four plants (Example 9); details: P. aduncum cuttings sprayed twice daily with 0.15% d-limonene aerosol; choice of 4 plants
From the text: Butterflies were induced to lay on host plant Piper aduncum plant sprayed with lime plant oil, or lime plant sprayed with Piper aduncum plant oil. Piper aduncum shoots were collected in Andrew, Jamaica, and 297.35 g of leaves were placed in a Clevenger-type extractor and extracted with boiling water. Once extracted according to the methods described in Example 2, 0.8919 g of a clear oil with a minty-like odor was obtained, a yield of 0.30% by weight.
Four Heraclides andraemon pupae were placed in the cage previously described in Example 1. Three pupae hatched into adults, two males and a female, which were allowed to mate and lay eggs. They were given a choice of four types of plants on which to lay: unsprayed Piper aduncum cuttings; Piper aduncum cuttings sprayed with d-limonene; unsprayed lime seedlings; and lime seedlings sprayed with the Piper aduncum emulsion. These plants, all with young leaves, were placed around the cage.
Cuttings from the Piper aduncum shoots with young leaves were used to attempt to induce butterflies to feed and lay eggs on a Piper aduncum plant treated with lime plant extract. The Piper aduncum cuttings were sprayed twice daily for eight days, once in the morning and once in the afternoon, with a d-limonene aerosol formulation. The d-limonene aerosol formulation was prepared as a hydrocarbon mixture of 72% propane and 28% butane, with 0.15% d-limonene. […]

C=C(C)[C@H]1CC=C(C)CC1 [d-limonene] was tested, and the “% of eggs laid” value (H. andraemon [1]) was 13.47%, the “No. of eggs laid” value (H. andraemon [1]; total 193 eggs) was 26 and the “% of eggs laid” value (H. andraemon [2]) was 25.00%. The “No. of eggs laid” value (H. andraemon [2]; total 208 eggs) was 52, the “% of eggs laid” value (H. andraemon [3]) was 0% and the “No. of Eggs after 5 Days” value (H. andraemon [3]) was 0.

Reference: patent US10362781B2, “Methods of controlling the breeding behavior of butterflies” (University of the West Indies, a Regional Institution, …, priority 2010, dated 2019)
